In patent US7002012B2, “Substituted (1,3-bis(cyclohexylmethyl)-1,2,3,6-tetrahydro-2,6-dioxo-9h-purin-8-YI)phenyl derivatives, their preparation and their use in the treatment of inflammatory conditions and immune disorders” (SmithKline Beecham Corporation, priority 1997, dated 2006):

Columns and labels:
male Lewis rats [1] = assay: Carrageenan Pleurisy Assay; format: in vivo, rat; settings: for CARRAGEENAN PLEURISY (4 hr) LOCAL ED50 (MG/RAT) CELLS: inhibition of inflammatory cells (neutrophils) in pleural exudate four hours after carrageenan 0.075 mg/rat; for CARRAGEENAN PLEURISY (4 hr) LOCAL ED50 (MG/RAT) CELLS / CARRAGEENAN PLEURISY (4 hr) LOCAL ED50 (MG/RAT) EDEMA: local administration; for CARRAGEENAN PLEURISY (4 hr) LOCAL ED50 (MG/RAT) EDEMA: inhibition of pleural edema four hours after carrageenan 0.075 mg/rat
Procedure: The antiinflammatory activity of compounds of the invention was determined by the procedure of Vinegar, R, et al., Proc. Soc. Exp. Biol. Med., 1981, 168, 24–32, using male Lewis rats of 150±±}20 grams. The carrageenan dose was 0.075 mg/rat. Pleural exudate was harvested four hours after injection of carrageenan. Acute antiinflammatory activity was determined by inhibition of pleural edema and inflammatory cells (neutrophils) from a negative (vehicle) control group.

male Lewis rats [2] = assay: Acetic Acid Colitis Assay; format: in vivo, rat; settings: for ACETIC ACID COLITIS (24 hr) ACTIVE DOSE [MG/KG] (ROUTE) TISSUE WEIGHT: colon weight (edema); for ACETIC ACID COLITIS (24 hr) ACTIVE DOSE [MG/KG] (ROUTE) MPO: mucosal MPO levels
Procedure: Compounds were administered either orally or rectally 24, 16 and 4 hours prior to the 40 second instillation of 3% acetic acid solution in the proximal 6 cm of the colon under light anesthesia. The colon was immediately washed with 5 cc of saline. 24 hours later the rats were sacrificed and 6 cm of the proximal colon was excised weighed for edema. Neutrophil inflammation was determined by measuring MPO levels in the scraped colonic mucosa from these rats.

Male CD-1 mice = assay: In Vivo Septic Shock Model: C Parvum/LPS Shock; settings: oral dose 75 mg/kg, 2 hours before the LPS and at the same time as the LPS
Procedure: Male CD-1 mice, 25–30 g (Charles River: Raleigh, N.C.), are injected intravenously (i.v.) with 100 μμ}g killed C. Parvum (Coparvax; Burroughs Wellcome, RTP, NC).Ten days later the mice are injected i.v. with 20 μμ}g E. Coli 026:B6 lipopolysaccharide (LPS; Difco Labs, Detroit, Mich.) in the presence of the analgesic butorphenol (150 μμ}g per mouse).
The test compounds are dissolved in dimethyl sulphoxide and diluted into 0.5% methyl cellulose and then dosed orally 2 hours before the LPS and at the same time as the LPS.

[3] = ic = intracolonic administration

Molecule | CARRAGEENAN PLEURISY (4 hr) LOCAL ED50 (MG/RAT) CELLS (male Lewis rats [1]) | CARRAGEENAN PLEURISY (4 hr) LOCAL ED50 (MG/RAT) EDEMA (male Lewis rats [1]) [MG/RAT] | also measured
COCCOCCOCCOCCOCCOCCOCCOCCOCCOCCOC(=O)/C=C/c1ccc(-c2nc3c(=O)n(CC4CCCCC4)c(=O)n(CC4CCCCC4)c3[nH]2)cc1 [Example 9, (E)-4-(1,3-Bis(cyclohexylmethyl)-1,2,3,6-tetrahydro-2,6-dioxo-9H-purin-8-yl)cinnamic Acid Decaethylene Glycol Methyl Ether Ester] | 0.02 MG/RAT | 0.2 | ACETIC ACID COLITIS (24 hr) ACTIVE DOSE [MG/KG] (ROUTE) TISSUE WEIGHT (male Lewis rats [2]; [3]): 5.0 mg/kg; ACETIC ACID COLITIS (24 hr) ACTIVE DOSE [MG/KG] (ROUTE) MPO (male Lewis rats [2]; [3]): 5.0 mg/kg; % Survivors (Male CD-1 mice): 50%; Alive/Total (Male CD-1 mice): 4/8
C[C@@H]1C[C@H]2[C@@H]3CCC4=CC(=O)C=C[C@]4(C)[C@@]3(F)[C@@H](O)C[C@]2(C)[C@@]1(O)C(=O)CO [Dexamethasone, reference compound] | 0.02 MG/RAT | 0.015 | ACETIC ACID COLITIS (24 hr) ACTIVE DOSE [MG/KG] (ROUTE) TISSUE WEIGHT (male Lewis rats [2]; [3]): 0.17 mg/kg; ACETIC ACID COLITIS (24 hr) ACTIVE DOSE [MG/KG] (ROUTE) MPO (male Lewis rats [2]; [3]): 0.03 mg/kg
O=C(O)/C=C/c1ccc(-c2nc3c(=O)n(CC4CCCCC4)c(=O)n(CC4CCCCC4)c3[nH]2)cc1 [compound 1, (E)-4-[1,3 Bis(cyclohexylmethyl)-1,2,3,6-tetrahydro-2,6-dioxo-9H-purin-8-yl]cinnamic acid, reference compound] |  |  | activity in Carrageenan Pleurisy Assay (male Lewis rats [1]): inactive; activity in Acetic Acid Colitis Assay (male Lewis rats [2]): inactive; % Survivors (Male CD-1 mice): 25%; Alive/Total (Male CD-1 mice): 2/8
(E)-4-(1,3-Bis(cyclohexylmethyl)-1,2,3,6-tetrahydro-2,6-dioxo-9H-purin-8-yl)cinnamic Acid Polyethylene Glycol (n=15) Methyl Ether Ester [Example 15] | 0.4 MG/RAT | 0.2 | ACETIC ACID COLITIS (24 hr) ACTIVE DOSE [MG/KG] (ROUTE) TISSUE WEIGHT (male Lewis rats [2]; po = oral administration): inactive; ACETIC ACID COLITIS (24 hr) ACTIVE DOSE [MG/KG] (ROUTE) MPO (male Lewis rats [2]; po = oral administration): 50 mg/kg
(E)-4-(1,3-Bis(cyclohexylmethyl)-1,2,3,6-tetrahydro-2,6-dioxo-9H-purin-8-yl)cinnamic Acid Polyethylene Glycol (n=32.2) Ester [Example 16] | 0.2 MG/RAT | 0.2 | 
COCCOCCOCCOCCOCCOCCOCCOCCOCCOC(=O)/C=C/c1ccc(-c2nc3c(=O)n(CC4CCCCC4)c(=O)n(CC4CCCCC4)c3[nH]2)cc1 [Example 10, (E)-4-(1,3-Bis(cyclohexylmethyl)-1,2,3,6-tetrahydro-2,6-dioxo-9H-purin-8-yl)cinnamic Acid Nonaethylene Glycol Methyl Ether Ester] | 0.5 MG/RAT | 0.5 | ACETIC ACID COLITIS (24 hr) ACTIVE DOSE [MG/KG] (ROUTE) TISSUE WEIGHT (male Lewis rats [2]; po = oral administration): 50 mg/kg; ACETIC ACID COLITIS (24 hr) ACTIVE DOSE [MG/KG] (ROUTE) MPO (male Lewis rats [2]; po = oral administration): 50 mg/kg
(E)-4-(1,3-Bis(cyclohexylmethyl)-1,2,3,6-tetrahydro-2,6-dioxo-9H-purin-8-yl)cinnamic Acid Polyethylene Glycol (n=18.9) Ester [Example 17] | 0.1 MG/RAT | 0.1 | 
(E)-4-(1,3-Bis(cyclohexylmethyl)-1,2,3,6-tetrahydro-2,6-dioxo-9H-purin-8-yl)cinnamic Acid Polyethylene Glycol (n=13) Ester [Example 18] | 0.1 MG/RAT | 0.1 | 
(E)-4-(1,3-Bis(cyclohexylmethyl)-1,2,3,6-tetrahydro-2,6-dioxo-9H-purin-8-yl)cinnamic Acid Polyethylene Glycol (n=41.5) Methyl Ether Ester [Example 14] | Inactive | 0.5 | 
